# From patent US8691852B2, “Amino nicotinic and isonicotinic acid derivatives as DHODH inhibitors” (Amirall, S.A., priority 2006, dated 2014)
# Target: human DHODH (Homo sapiens (Human), UniProt Q02127)
# Assay: Inhibition of human DHODH activity assay (DCIP chromogen reduction)
# Settings: read-out: hDHODH IC50; human enzyme extract, 200 μM CoQD, 100 μM L-DHO, 120 μM DCIP, 10 min room temperature, absorbance 600 nm
# Protocol: DHODH activity and its inhibition were studied using a chromogen reduction assay with DCIP (2,6-dichlorophenol-indophenol).
# Enzyme extracts (8 μl, ˜1.5 μg of human protein) were incubated in 96-well plates. The assay mixture (200 μl) contained 200 μM CoQD, 100 μM L-DHO, 120 μM DCIP in the assay buffer (100 mM HEPES pH 8.0, 150 mM NaCl, 10% Glicerol, 0.05% Triton X-100) and 2 μl of test compound. The compounds were dissolved in DMSO at a stock concentration of 1 mM, and tested at different concentrations varying from 10 μM to 1 μM to calculate an IC50 (concentration of inhibitor required for 50% of inhibition).
# The reaction was initiated by adding the enzyme and then incubated for 10 min at room temperature before measuring DCIP reduction by counting a decrease in absorbance at 600 nm using standard instrumentation (Spectramax).
# All reactions were carried out in duplicate and graphs, determining IC50 values for each compound, were plotted using the ABase software.
# human DHODH, sequence (Q02127 whole entry): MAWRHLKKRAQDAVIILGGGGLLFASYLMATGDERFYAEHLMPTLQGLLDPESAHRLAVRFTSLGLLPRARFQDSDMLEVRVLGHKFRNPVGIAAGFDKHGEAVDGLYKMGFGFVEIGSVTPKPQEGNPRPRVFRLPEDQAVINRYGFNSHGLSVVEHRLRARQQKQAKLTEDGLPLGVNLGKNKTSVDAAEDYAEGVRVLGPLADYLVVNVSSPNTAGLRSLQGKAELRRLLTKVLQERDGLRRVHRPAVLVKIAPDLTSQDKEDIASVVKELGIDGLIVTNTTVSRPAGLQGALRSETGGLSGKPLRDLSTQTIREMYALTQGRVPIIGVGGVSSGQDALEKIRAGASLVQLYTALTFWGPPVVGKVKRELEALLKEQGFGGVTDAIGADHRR
row,SMILES,IC50 [µM]
1,"CCOc1cccc(-c2ccc(Nc3ncccc3C(=O)O)c(F)c2)c1 [Example 2, 2-(3′-Ethoxy-3-fluorobiphenyl-4-ylamino)nicotinic acid]",0.2
2,"COc1cccc(-c2cc(F)c(Nc3ncccc3C(=O)O)cc2F)c1 [Example 6, 2-(2,5-Difluoro-3′-methoxybiphenyl-4-ylamino)nicotinic acid]",0.088
3,"COc1cccc(-c2ccc(Nc3ncccc3C(=O)O)c(Cl)c2)c1 [Example 13, 2-(3-Chloro-3′-methoxybiphenyl-4-ylamino)nicotinic acid]",0.15
4,"O=C(O)c1cccnc1Nc1c(F)cc(-c2cccc(OC3CCC3)c2)cc1F [Example 17, 2-(3′-Cyclobutoxy-3,5-difluorobiphenyl-4-ylamino)nicotinic acid]",0.09
5,"CCOc1cccc(-c2cc(F)c(Nc3ncccc3C(=O)O)c(F)c2)c1 [Example 19, 2-(3′-Ethoxy-3,5-difluorobiphenyl-4-ylamino)nicotinic acid]",0.019
6,"CCOc1cccc(-c2ccc(Nc3cnccc3C(=O)O)c(F)c2)c1 [Example 21, Lithium 3-(3′-ethoxy-3-fluorobiphenyl-4-ylamino)isonicotinate]",0.019
7,"COc1cccc(-c2ccc(Nc3cnccc3C(=O)O)c(OC(F)(F)F)c2)c1 [Example 23, Lithium 3-(3′-methoxy-3-(trifluoromethoxy)biphenyl-4-ylamino)isonicotinate]",0.014
8,"O=C(O)c1ccncc1Nc1ccc(-c2cccc(OC(F)(F)F)c2)cc1F [Example 24, Lithium 3-(3-fluoro-3′-(trifluoromethoxy)biphenyl-4-ylamino)isonicotinate]",0.2
9,"Cc1cnc(Nc2ccc(-c3cccc(OC(F)(F)F)c3)cc2F)c(C(=O)O)c1 [Example 33, 2-(3-Fluoro-3′-(trifluoromethoxy)biphenyl-4-ylamino)-5-methylnicotinic acid]",0.11
10,"COc1cccc(-c2ccc(Nc3ncc(C4CC4)cc3C(=O)O)c(F)c2)c1 [Example 34, 5-Cyclopropyl-2-(3-fluoro-3′-methoxybiphenyl-4-ylamino)nicotinic acid]",0.033
11,"COc1cccc(-c2cc(F)c(Nc3ncccc3C(=O)O)cc2C)c1 [Example 37, 2-(5-Fluoro-3′-methoxy-2-methylbiphenyl-4-ylamino)nicotinic acid]",0.099
12,"CCc1cnc(Nc2c(F)cc(-c3cccc(OC)c3)cc2F)c(C(=O)O)c1 [Example 40, 2-(3,5-difluoro-3′-methoxybiphenyl-4-ylamino)-5-ethylnicotinic acid]",0.012
13,"CCOc1cccc(-c2cc(F)c(Nc3ncc(C4CC4)cc3C(=O)O)cc2F)c1 [Example 42, 5-cyclopropyl-2-(3′-ethoxy-2,5-difluorobiphenyl-4-ylamino)nicotinic acid]",0.023
14,"COc1cccc(-c2cc(F)c(Nc3ncccc3C(=O)O)c(F)c2)c1F [Example 45, 2-(2′,3,5-trifluoro-3′-methoxybiphenyl-4-ylamino)nicotinic acid]",0.053
15,"O=C(O)c1cccnc1Nc1c(F)cc(-c2cccc(OC3CC3)c2)cc1F [Example 47, 2-(3′-cyclopropoxy-3,5-difluorobiphenyl-4-ylamino)nicotinic acid]",0.017
16,"Cc1c(-c2ccccc2)cc(F)c(Nc2ncccc2C(=O)O)c1F [Example 48, 2-(3,5-difluoro-2-methylbiphenyl-4-ylamino)nicotinic acid]",0.005
17,"O=C(O)c1cc(C2CC2)cnc1Nc1c(F)cc(-c2cccc(OC3CC3)c2)cc1F [Example 50, 2-(3′-cyclopropoxy-3,5-difluorobiphenyl-4-ylamino)-5-cyclopropylnicotinic acid]",0.006
18,"O=C(O)c1cc(C2CC2)cnc1Nc1c(F)cc(-c2cccc(OC(F)(F)F)c2)cc1F [Example 52, 5-cyclopropyl-2-(3,5-difluoro-3′-(trifluoromethoxy)biphenyl-4-ylamino)nicotinic acid]",0.004
19,"O=C(O)c1cc(C2CC2)cnc1Nc1c(F)cc(-c2ccccc2Cl)cc1F [Example 54, 2-(2′-chloro-3,5-difluorobiphenyl-4-ylamino)-5-cyclopropylnicotinic acid]",0.005
20,"Cc1c(-c2cccc(OC(F)(F)F)c2)cc(F)c(Nc2ncccc2C(=O)O)c1F [Example 56, 2-(3,5-difluoro-2-methyl-3′-(trifluoromethoxy)biphenyl-4-ylamino)nicotinic acid]",0.006
21,"Cc1c(-c2ccccc2Cl)cc(F)c(Nc2ncccc2C(=O)O)c1F [Example 57, 2-(2′-chloro-3,5-difluoro-2-methylbiphenyl-4-ylamino)nicotinic acid]",0.004
22,"O=C(O)c1cc(Cl)cnc1Nc1c(F)cc(-c2ccccc2)cc1F [Example 58, 5-chloro-2-(3,5-difluorobiphenyl-4-ylamino)nicotinic acid]",0.008
23,"COc1cccc(-c2c(F)c(F)c(Nc3ncccc3C(=O)O)c(F)c2F)c1 [Example 60, 2-(2,3,5,6-tetrafluoro-3′-methoxybiphenyl-4-ylamino)nicotinic acid]",0.003
24,"Cc1ccccc1-c1cc(F)c(Nc2ncccc2C(=O)O)c(F)c1 [Example 61, 2-(3,5-difluoro-2′-methylbiphenyl-4-ylamino)nicotinic acid]",0.011

# Test system: HIV replication
# Assay: not given
# Settings: at concentration that can be obtained with conventional dosing; cited from earlier work
row,SMILES,reduces HIV replication
1,Cc1oncc1C(=O)Nc1ccc(C(F)(F)F)cc1 [Leflunomide],about 75%
